Laboratory results: patent US12649748B2, “Wee1 inhibitor and use thereof” (JIANGSU TASLY DIYI PHARMACEUTICAL CO., LTD., priority 2021, dated 2026)
Read-outs that look alike come from different tables or passages of the source.

Assays:
MIA Paca-2 cells = test: Anti-proliferative effect by Cell Titer-Glo, MIA Paca-2; format: cell-based; conditions: Homo sapiens, read-out: IC50 measured value MIA Paca-2
Description: (§1) Compound solutions of different concentration gradients were prepared. DMSO was dissolved to a concentration of 10 mM test compound and 10 mM reference compound AZD1775, and the compounds were serially diluted in culture medium for a total of 9 dose points, with 2 parallel replicates set at each concentration. The cell growth group without compound was used as a positive control (maximum signal control) and the medium was used as a negative control (minimum signal control), while ensuring that the final level of DMSO in each reaction well was 0.2%. After removing the medium from the 384-well plate, 25 ul of the configured compound at different concentrations was transferred into the well plate and the compound and cells were incubated in the cell incubator at 37° C. with 5% CO2 for 3 days.
(§2) The 384-well plates were removed from the cell incubator and allowed to equilibrate for 1 h to room temperature. 25 ul of Cell Titer-Glo assay was added to each well, lysed on a shaker for 2 min and then read out (Luminescence) using a BMG PHERAStar after 10 min incubation. Calculate the inhibition rate from the luminescence signal: first calculate the average of the positive control (maximum signal control) and the negative control (minimum signal control).
(§3) [formula] to calculate the rate of inhibition of the cells by different concentrations of the compounds. The IC50 of the compound on cell activity inhibition was calculated by fitting a log(inhibitor) vs. response-Variable slope model to GraphPad Prism 6. The fitted equation was: Y=Bottom+(Top−Bottom)/(1+10^((Log IC50−X)*HillSlope)), where Y represents the rate of inhibition and X represents the concentration of the known compound after Log.

[1] = Compound pharmacokinetics in mice; format: in vivo; conditions: male ICR mice, oral gavage 10 mg/kg, plasma; for Cmax / AUC(0-inf) / half-life: mouse; for AUC(0-inf): read-out: AUCinf—Pred; for half-life: read-out: T½ (converted)
Description: To investigate the pharmacokinetic properties of the compound in mice, six male ICR mice were given the compound by oral gavage (10 mg/kg) at the corresponding dose, and each route of administration was divided into two groups: group A mice had anticoagulated whole blood collected at 5 min, 30 min, 2 h and 8 h after administration, while group B mice had anticoagulated whole blood collected at 15 min, 1 h, 4 h and 24 h after administration, isolated plasma;
The plasma concentrations of the compounds were determined by LC-MS using a standard curve calibration method. Plasma concentration-time data were fitted to pharmacokinetic parameters using Winnolin 5.2 software.

Wee1 protein = target: T1, Wee1 protein (Homo sapiens, UniProt P30291); test: Binding of compound to Wee1 protein and Tracer 178 by TR-FRET; conditions: inhibitory activity against Wee1 kinase, read-out: IC50 measured value
T1 construct: purchased Thermo Fisher PR7373A
T1 sequence (P30291 whole entry): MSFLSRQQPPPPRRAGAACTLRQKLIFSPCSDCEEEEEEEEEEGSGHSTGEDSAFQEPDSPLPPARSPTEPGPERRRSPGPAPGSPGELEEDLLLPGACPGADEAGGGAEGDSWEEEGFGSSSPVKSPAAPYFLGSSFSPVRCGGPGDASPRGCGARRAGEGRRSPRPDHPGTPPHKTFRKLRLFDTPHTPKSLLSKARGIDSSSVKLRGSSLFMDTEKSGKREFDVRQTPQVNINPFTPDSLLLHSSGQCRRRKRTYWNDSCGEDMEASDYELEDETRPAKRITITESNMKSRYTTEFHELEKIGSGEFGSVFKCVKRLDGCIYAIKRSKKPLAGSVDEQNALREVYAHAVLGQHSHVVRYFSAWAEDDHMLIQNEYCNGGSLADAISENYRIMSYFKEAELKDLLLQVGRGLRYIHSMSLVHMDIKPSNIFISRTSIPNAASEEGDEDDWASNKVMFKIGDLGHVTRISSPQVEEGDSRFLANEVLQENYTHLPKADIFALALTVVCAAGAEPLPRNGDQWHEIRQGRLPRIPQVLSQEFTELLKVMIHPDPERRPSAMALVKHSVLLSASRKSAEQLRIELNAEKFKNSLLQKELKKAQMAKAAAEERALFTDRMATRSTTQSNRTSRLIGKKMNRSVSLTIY
Description: First, solutions of the compounds in different concentration gradients were prepared. […] DMSO was added as a positive control (maximal signal control) and a negative control (minimal signal control) and a final level of 0.25% DMSO was ensured in each reaction well.
WEE1 (Thermo Fisher, Cat #PR7373A) protein in buffer (50 mM Hepes pH 7.5, 10 mM MgCl2, 1 mM EGTA, 0.01% Brij-35) at 15 nM) in different concentrations of compound, and Tracer 178 (Invitrogen, PV5593) and MAb Anti-GST-Eu crypate (Cisbio, 61GSTKLA) were added to 384-well plates (Corning, cat #3574), centrifuged at 1000 rpm for 1 min and the 384-well plates were incubated in a constant temperature shaker for 60 min at 25° C. and 300 rpm. Tracer 178 and MAb Anti-GST-Eu crypate were prepared in buffer (50 mM HEPES pH 7.5, 10 mM MgCl2, 1 mM EGTA, 0.01% Brij-35) with a final reaction concentration of 50 nM for Tracer 178 and a final concentration of 2 nM for MAb Anti-GST-Eu crypate, where the negative control (minimal signal control) used an equal amount of buffer in place of the protein solution.
After incubation, readings were performed using BMG PHERAStar (excitation light at 337 nm and emission light at wavelength values of 620 nm and 665 nm to read the fluorescence signal values). […] The IC50 for inhibition of enzyme activity by the compounds was then calculated using GraphPad Prism 6 and fitted with a log (inhibitor) vs. response-Variable slope mode. The fitting equation was: Y=Bottom+(Top-Bottom)/(1+10^((Log IC50−X)*HillSlope)), where Y represents the percentage of residual enzyme activity known and X represents the known concentration of compound after the logarithm.

H1299 cells = test: Anti-proliferative effect by Cell Titer-Glo, H1299; format: cell-based; conditions: Homo sapiens, NCI-H1299, 72 h, read-out: IC50 measured value H1299
Description: as §1, §2, §3

[2] = Metabolic stability of liver microsomes in vitro (mouse); format: in vitro ADME; conditions: read-out: Mouse T1/2/min
Description: Microsomes were taken out from the −80° C. refrigerator, rapidly melted in a 37° C. water bath and placed on ice until ready to use. The test article was diluted with DMSO to prepare a 10 mM stock solution, and then diluted with acetonitrile to a 0.5 mM secondary stock solution. The microsomes were diluted to 0.75 mg/ml using Buffer C; the secondary stock solution was then added to a final concentration of 1.5 μM of compound as working solution, based on n=2, 5 time points, 350 μL of each compound was prepared and placed on ice prior to use. NADPH was diluted with Buffer C to a working solution of 6 mM for the starter solution. An acetonitrile solution containing an internal standard was prepared as the precipitant, and Verapamil-HCl was chosen as the internal standard at a concentration of 4 ng/ml.
A round-bottom well plate was taken, noted as the reaction plate, and the prepared working solution for each compound was dispensed into the well plate according to the number of replicates and time points (0 h samples are also added to the reaction plate), 30 μL/well; the plate was incubated at 37° C. for 10 min. A separate plate with pointed bottom wells, noted as a precipitation plate, was added with 135 μL precipitant per well; 0 h samples were transferred to the plate after 10 min incubation and 15 μL of starter solution was added; the plate was placed on ice before centrifugation.
The diluted starter solution was added in sufficient quantity to the dispensing plate to facilitate the multichannel pipette aspiration operation.
The reaction was carried out on a warm incubation shaker and 15 μL of starter solution/sample is added to the plate using a multichannel pipette. The reaction was mixed with a slight shake to initiate the reaction, which was accurately timed and recorded using a timer;
After the reaction time had elapsed, all the solution in the plate was aspirated using the multichannel pipette and added to the precipitation plate to terminate the reaction at that point in time. After all reactions had been terminated, the plates were shaken for ten minutes on a plate shaker at 600 rpm to precipitate the protein. The plate was centrifuged at 4° C. for 15 minutes at maximum rpm. 80 μL of supernatant was taken, 320 μL of pure water was added and mixed for LC-MS analysis.

[3] = Membrane permeability study (Caco-2); format: in vitro ADME; conditions: human; for efflux ratio at 90 min, 10 µM: Caco-2, pH 7.4, read-out: Efflux Ration; for Papp A→B at 90 min, 10 µM / Papp B→A at 90 min, 10 µM: pH 7.4, Caco-2, 10 μM; for Papp A→B at 90 min, 10 µM: A to B; for Papp B→A at 90 min, 10 µM: B to A
Description: Caco-2 cells were purchased from the […] (Rockville, MD). The cell culture medium was modified Eagle's medium (MEM) containing 10% inactivated fetal bovine serum and 1% non-essential amino acids. Cells were inoculated on polycarbonate filter membranes (Cat no. 3396) and incubated at 37° C. in a 5% CO2 incubator.
The cells were incubated for 21-28 days after inoculation for transport experiments and the apparent permeability (Papp) of Lucifer Yellow was used to characterize and verify the compactness of the cell monolayer. A stock solution of 10 mM was prepared by dissolving the compound in DMSO and diluted using Hanks Balanced Salt Solution (HBSS, Invitrogen, Cat #14025-092) containing 25 mM HEPES (pH 7.4) to obtain the working solution. A 10 μM working solution of the compound to be tested was added to the apical side and basolateral side of Caco-2 and incubated at 37° C. for 90 min. After the incubation, dilute the samples on the apical side and basolateral side, and the concentrations of compounds on the apical and basolateral sides were detected by LC-MS/MS, and the concentrations of the compounds were quantified by standard curve.

[4] = 72 h, MIA Paca-2 cells, 3 days, Cell Titer-Glo
[5] = H1299 cells, 3 days, Cell Titer-Glo

Structure (SMILES) | IC50 (MIA Paca-2 cells; [4]) | IC50 (Wee1 protein) | IC50 (H1299 cells; [5]) | also measured
CN1CCN(c2ccc(Nc3ncc4cnn(-c5ccnc(N=S(C)(C)=O)c5)c4n3)cc2)CC1 [Compound 28] | 1 to 5 µM | 0.1 to 1 µM | 5 to 20 µM | Cl_pred [1]: 230 mL/min/kg; Cmax [1]: 337 ng/mL; AUC(0-inf) [1]: 743 ng·h/mL; half-life [1]: 107 min
CN1CCN(c2ccc(Nc3ncc4cnn(-c5ccc6c(c5)C(C)(O)CO6)c4n3)cc2)CC1 (stereo not shown) [Compound 40] | 0.1 to 1 µM | 0.01 to 0.1 µM | 0.1 to 1 µM | half-life at 1 µM [2]: 20.4 min; efflux ratio at 90 min, 10 µM [3]: 0.89; Papp A→B at 90 min, 10 µM [3]: 18.6 ×10⁻⁶ cm/s; Papp B→A at 90 min, 10 µM [3]: 16.6 ×10⁻⁶ cm/s; Cl_pred [1]: 405 mL/min/kg; Cmax [1]: 377 ng/mL; AUC(0-inf) [1]: 493 ng·h/mL; half-life [1]: 42 min
CCn1cnc2ccc(-n3ncc4cnc(Nc5ccc(N6CCN(C)CC6)cc5)nc43)cc21 [Compound 45] | 0.1 to 1 µM | 0.01 to 0.1 µM | 0.1 to 1 µM | half-life at 1 µM [2]: 10.3 min; efflux ratio at 90 min, 10 µM [3]: 1.79; Papp A→B at 90 min, 10 µM [3]: 4.09 ×10⁻⁶ cm/s; Papp B→A at 90 min, 10 µM [3]: 7.34 ×10⁻⁶ cm/s
CN1CCN(c2ccc(Nc3ncc4cnn(-c5cccc(N=S(C)(C)=O)c5F)c4n3)cc2)CC1 [Compound 33] | 1 to 5 µM | 0.1 to 1 µM | 1 to 5 µM | 
CN1CCN(c2ccc(Nc3ncc4cnn(-c5ccc6ccncc6c5)c4n3)cc2)CC1 [Compound 36] | 1 to 5 µM | 0.01 to 0.1 µM | 1 to 5 µM | 
CN1CCN(c2ccc(Nc3ncc4cnn(-c5cc(C(C)(C)O)ccc5F)c4n3)cc2)CC1 [Compound 52] | 0.1 to 1 µM | 0.1 to 1 µM | 0.1 to 1 µM | 
CN1CCN(c2ccc(Nc3ncc4cnn(-c5cncc(C(C)(C)O)c5)c4n3)cc2)CC1 [Compound 32] | 0.1 to 1 µM | 0.1 to 1 µM | 0.1 to 1 µM | 
CN1CCN(c2ccc(Nc3ncc4cnn(-c5ccc(F)c(C(C)(C)O)c5)c4n3)cc2)CC1 [Compound 42] | 0.1 to 1 µM | 0.01 to 0.1 µM | 0.1 to 1 µM | 
CN1CCN(c2ccc(Nc3ncc4cnn(-c5cccc(N=S(C)(C)=O)n5)c4n3)cc2CO)CC1 [Compound 23] | 0.1 to 1 µM | 0.001 to 0.01 µM | 0.1 to 1 µM | 
CN1CCN(c2ccc(Nc3ncc4cnn(-c5cc(C(C)(C)O)ccn5)c4n3)cc2)CC1 [Compound 34] | 0.1 to 1 µM | 0.1 to 1 µM | 0.1 to 1 µM | 
CN1CCN(c2ccc(Nc3ncc4c(C(F)(F)F)nn(-c5cccc(N=S(C)(C)=O)n5)c4n3)cc2)CC1 [Compound 24] |  | 0.01 to 0.1 µM |  | IC50 (MIA Paca-2 cells; MIA PaCa-2, 72 h): 1 to 5 µM; IC50 (H1299 cells): 1 to 5 µM
COc1nn(-c2cccc(N=S(C)(C)=O)n2)c2nc(Nc3ccc(N4CCN(C)CC4)cc3)ncc12 [Compound 27B] | 0.1 to 1 µM | 0.01 to 0.1 µM | 1 to 5 µM | 
CN1CCN(c2ccc(Nc3ncc4cnn(-c5cncc(N=S(C)(C)=O)c5)c4n3)cc2)CC1 [Compound 31] | 0.1 to 1 µM | 0.01 to 0.1 µM | 1 to 5 µM | 
CN1CCN(C2CCN(c3ccc(Nc4ncc5cnn(-c6cccc(N=S(C)(C)=O)n6)c5n4)cc3)CC2)CC1 [Compound 20] | 0.1 to 1 µM | 0.001 to 0.01 µM | 1 to 5 µM | 
CN1CCN(c2ccc(Nc3ncc4cnn(-c5cccc(-n6ccccc6=O)n5)c4n3)cc2)CC1 [Compound 54] | 1 to 5 µM | 0.01 to 0.1 µM | 5 to 20 µM | 
Cc1nc2ccc(-n3ncc4cnc(Nc5ccc(N6CCN(C)CC6)cc5)nc43)cc2n1C [Compound 58] | 0.1 to 1 µM | 0.01 to 0.1 µM | < 0.1 µM | 
